According to the supplement of paper PMC10307832:

Tests used:
Test in all cases: relative viability (nuclei count vs DMSO), 5 days (fraction); higher = more cells survive
[1] = compound: O[C@H]1CC[C@H](Nc2ncc3nc(Nc4c(F)cc(F)cc4F)n([C@H]4CCOC4)c3n2)CC1 [Tanzisertib] + COc1cccc2cc(-c3nc([C@H]4CC[C@H](C(=O)O)CC4)n4ncnc(N)c34)[nH]c12 [OSI-027] (partner 0.5 µM)
In short: (§1)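 Lung cancer cell lines in 1536-well plates got either a single drug or a fixed anchor-drug dose together with five library-drug doses (not always all listed) in √10 steps, by pin tool, on the day after seeding. Nuclei were counted after 5 days, and relative viability is the treated-to-vehicle ratio of nuclei counts. Values are medians of duplicate plates.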

[2] = compound: C1CNCCC1C2=CC(=NN2)C3=CC=NC=C3 + COc1cccc2cc(-c3nc([C@H]4CC[C@H](C(=O)O)CC4)n4ncnc(N)c34)[nH]c12 [OSI-027] (partner 0.5 µM)
In short: as §1

[3] = compound: O[C@H]1CC[C@H](Nc2ncc3nc(Nc4c(F)cc(F)cc4F)n([C@H]4CCOC4)c3n2)CC1 [Tanzisertib] + N=C(N)NC(=N)NCCc1ccccc1 [Phenformin] (partner 250 µM)
In short: as §1

[4] = compound: C[C@@H](N)c1ccc(C(=O)Nc2ccnc3[nH]ccc23)cc1 + NC(=O)Nc1cc(-c2cccc(F)c2)sc1C(=O)N[C@H]1CCCNC1 [AZD7762] (partner 0.2 µM)
In short: as §1

Cell Line | relative viability ([1]; first compound 0.08 µM) | relative viability ([1]; first compound 0.253 µM) | relative viability ([1]; first compound 0.8 µM) | relative viability ([1]; first compound 2.53 µM) | relative viability ([1]; first compound 8 µM) | relative viability ([2]; first compound 0.08 µM) | relative viability ([2]; first compound 0.8 µM) | relative viability ([2]; first compound 2.53 µM) | relative viability ([2]; first compound 8 µM) | relative viability ([3]; first compound 0.08 µM) | relative viability ([3]; first compound 0.253 µM) | relative viability ([3]; first compound 0.8 µM) | relative viability ([3]; first compound 2.53 µM) | relative viability ([3]; first compound 8 µM) | relative viability ([4]; first compound 0.04 µM) | relative viability ([4]; first compound 0.1265 µM) | relative viability ([4]; first compound 0.4 µM) | relative viability ([4]; first compound 1.265 µM) | relative viability ([4]; first compound 4 µM)
SK-LU-1 | 0.392 | 0.324 | 0.319 | 0.354 | 0.365 | 0.386 | 0.346 | 0.346 | 0.342 | 0.694 | 0.542 | 0.566 | 0.509 | 0.561 |  |  |  |  | 
LOU-NH91 | 0.785 | 0.758 | 0.756 | 0.671 | 0.489 | 0.696 | 0.74 | 0.796 | 0.727 | 0.731 | 0.763 | 0.746 | 0.73 | 0.439 | 0.622 | 0.782 | 0.751 | 0.628 | 0.518
LXF-289 | 0.801 | 0.818 | 0.76 | 0.856 | 0.644 | 0.847 | 0.829 | 0.901 | 0.728 | 0.55 | 0.532 | 0.519 | 0.545 | 0.535 | 1.07 | 1.09 | 1.23 | 1.26 | 0.934
HARA | 0.74 | 0.496 | 0.537 | 0.45 | 0.0888 | 0.552 | 0.524 | 0.627 | 0.404 | 0.541 | 0.401 | 0.451 | 0.41 | 0.333 | 0.275 | 0.266 | 0.3 | 0.965 | 0.311
LU99A | 0.305 | 0.316 | 0.296 | 0.29 | 0.302 | 0.292 | 0.291 | 0.331 | 0.304 | 0.971 | 0.82 | 0.884 | 0.813 | 0.786 |  | 0.354 | 0.467 | 0.511 | 0.771
201T | 0.632 | 0.854 | 0.673 | 0.713 | 0.501 | 0.72 | 0.718 | 0.832 | 0.842 | 0.454 | 0.501 | 0.477 | 0.459 | 0.386 | 0.644 | 0.678 | 0.668 | 1.01 | 0.783
HCC-827 | 0.857 | 0.763 | 0.775 | 0.678 | 0.44 | 0.666 | 0.673 | 0.806 | 0.782 | 0.409 | 0.417 | 0.398 | 0.382 | 0.242 |  | 0.286 | 0.247 | 0.329 | 0.275
NCI-H1666 | 0.877 | 0.869 | 0.944 | 0.834 | 0.786 | 0.871 | 0.967 | 0.794 | 0.878 | 0.595 | 0.602 | 0.56 | 0.607 | 0.59 | 0.824 | 0.953 | 1.13 | 1.12 | 0.98
NCI-H1915 | 0.695 | 0.633 | 0.615 | 0.669 | 0.34 | 0.643 | 0.641 | 0.623 | 0.646 | 0.4 | 0.355 | 0.364 | 0.365 | 0.291 |  | 0.785 | 0.697 |  | 0.691
NCI-H2009 | 0.776 | 0.668 | 0.594 | 0.73 | 0.705 | 0.761 | 0.699 | 0.749 | 0.725 | 0.52 | 0.483 | 0.515 | 0.593 | 0.553 |  |  |  |  | 
ChaGo-K-1 | 0.673 | 0.615 | 0.583 | 0.51 | 0.472 | 0.559 | 0.557 | 0.589 | 0.575 | 0.547 | 0.545 | 0.447 | 0.493 | 0.482 | 0.832 | 0.862 | 0.978 | 0.838 | 0.816
COR-L 105 | 0.663 | 0.686 | 0.682 | 0.631 | 0.444 | 0.694 | 0.678 | 0.925 | 0.664 | 0.467 | 0.465 | 0.449 | 0.473 | 0.327 |  |  |  |  | 
NCI-H2170 | 0.765 | 0.771 | 0.729 | 0.735 | 0.588 | 0.611 | 0.697 | 0.776 | 0.686 | 0.406 | 0.451 | 0.457 | 0.411 | 0.392 | 0.972 | 0.935 | 1.05 | 0.827 | 0.832
A549 |  |  |  |  |  |  |  |  |  | 0.236 | 0.153 | 0.183 | 0.309 | 0.168 |  |  |  |  | 
SW 1573 | 0.829 | 0.594 | 0.558 | 0.592 | 0.484 |  | 0.666 | 0.727 | 0.752 | 0.457 | 0.305 | 0.347 | 0.417 | 0.356 |  |  |  |  | 
NCI-H1975 | 0.926 | 0.773 | 0.671 | 0.673 | 0.587 | 0.703 | 0.778 | 0.774 | 0.777 | 0.419 | 0.404 | 0.409 | 0.424 | 0.441 | 0.593 | 0.613 | 0.688 | 0.513 | 0.434
